Laboratory results from patent publication EP4467141A1, “PYRAZOLO-QUINOLINES AS SELECTIVE INHIBITORS OF GENOTOXIC STRESS-INDUCED IKK/NF- KB PATHWAYS FOR CANCER THERAPY” (Max-Delbrück-Centrum für Molekulare Medizin in der …, priority 2023, dated 2024).

What was measured:
Experiment in all cases: Kinase panel study
Format in all cases: biochemical
Conditions in all cases: read-out: Percentage of inhibition; for inhibition at 1 µM: 1000nM; for inhibition at 10 µM: 10000nM
FLT3 D835Y = target: T1, FLT3 D835Y (Homo sapiens, UniProt P36888, D835Y)
T1 construct: purchased Thermo Fisher Scientific
T1 sequence (P36888 27-993 D835Y): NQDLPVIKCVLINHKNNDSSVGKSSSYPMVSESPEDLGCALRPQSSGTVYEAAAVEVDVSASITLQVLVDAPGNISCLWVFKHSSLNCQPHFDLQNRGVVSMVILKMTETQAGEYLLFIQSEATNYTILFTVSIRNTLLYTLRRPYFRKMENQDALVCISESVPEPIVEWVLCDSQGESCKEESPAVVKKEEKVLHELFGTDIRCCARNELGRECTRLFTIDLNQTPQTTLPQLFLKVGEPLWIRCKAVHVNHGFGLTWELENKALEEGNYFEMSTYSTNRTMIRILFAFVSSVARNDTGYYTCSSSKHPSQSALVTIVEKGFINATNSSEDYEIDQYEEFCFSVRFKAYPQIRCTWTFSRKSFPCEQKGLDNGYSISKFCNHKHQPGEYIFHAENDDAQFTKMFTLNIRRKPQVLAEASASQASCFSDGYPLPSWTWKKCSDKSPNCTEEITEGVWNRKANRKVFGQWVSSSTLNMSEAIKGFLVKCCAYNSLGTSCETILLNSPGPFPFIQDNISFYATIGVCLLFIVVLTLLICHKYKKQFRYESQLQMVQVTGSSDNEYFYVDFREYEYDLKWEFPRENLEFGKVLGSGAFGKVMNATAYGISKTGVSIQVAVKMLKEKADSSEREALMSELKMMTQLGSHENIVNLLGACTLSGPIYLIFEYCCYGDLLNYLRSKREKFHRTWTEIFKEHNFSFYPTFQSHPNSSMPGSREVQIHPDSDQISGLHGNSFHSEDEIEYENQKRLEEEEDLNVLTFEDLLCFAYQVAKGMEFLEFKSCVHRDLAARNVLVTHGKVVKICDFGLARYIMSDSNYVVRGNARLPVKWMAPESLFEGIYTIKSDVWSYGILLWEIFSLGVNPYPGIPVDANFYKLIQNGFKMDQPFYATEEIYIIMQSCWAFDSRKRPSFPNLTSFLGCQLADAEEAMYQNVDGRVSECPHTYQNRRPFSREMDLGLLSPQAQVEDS
In short: (§1)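 Outsourced panel screen. Format: ZLyte or Adapta, run per the manufacturer's procedures. Read-out: inhibition (%) at a single dose of 10 µM or 1 µM; IC50s also generated.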

PIM3 = target: T2, PIM3 (Homo sapiens, UniProt Q86V86)
T2 construct: purchased Thermo Fisher Scientific
In short: as §1

PRKCZ (PKC zeta) = target: T3, PRKCZ (PKC zeta) (Homo sapiens, UniProt Q05513)
T3 construct: purchased Thermo Fisher Scientific
T3 sequence (Q05513 1-592): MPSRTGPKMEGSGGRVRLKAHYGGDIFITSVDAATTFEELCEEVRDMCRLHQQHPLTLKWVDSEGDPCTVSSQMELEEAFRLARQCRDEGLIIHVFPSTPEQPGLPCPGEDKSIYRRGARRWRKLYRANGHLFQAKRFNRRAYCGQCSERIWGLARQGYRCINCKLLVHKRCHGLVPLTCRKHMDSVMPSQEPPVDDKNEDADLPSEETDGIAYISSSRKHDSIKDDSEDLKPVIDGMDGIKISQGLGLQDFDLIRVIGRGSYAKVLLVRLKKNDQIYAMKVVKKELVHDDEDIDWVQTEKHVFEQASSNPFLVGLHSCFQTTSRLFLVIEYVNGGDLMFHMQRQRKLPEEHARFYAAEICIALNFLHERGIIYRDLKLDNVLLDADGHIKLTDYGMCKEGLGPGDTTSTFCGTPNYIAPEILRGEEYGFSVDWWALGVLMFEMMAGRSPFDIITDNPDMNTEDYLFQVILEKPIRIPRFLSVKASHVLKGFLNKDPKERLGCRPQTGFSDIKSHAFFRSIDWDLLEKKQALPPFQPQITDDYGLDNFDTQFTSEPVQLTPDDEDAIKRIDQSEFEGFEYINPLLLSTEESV
In short: as §1

TEK (TIE2) Y897S = target: T4, TEK (TIE2) Y897S (Homo sapiens, UniProt Q02763, Y897S)
T4 construct: purchased Thermo Fisher Scientific
T4 sequence (Q02763 23-1124 Y897S): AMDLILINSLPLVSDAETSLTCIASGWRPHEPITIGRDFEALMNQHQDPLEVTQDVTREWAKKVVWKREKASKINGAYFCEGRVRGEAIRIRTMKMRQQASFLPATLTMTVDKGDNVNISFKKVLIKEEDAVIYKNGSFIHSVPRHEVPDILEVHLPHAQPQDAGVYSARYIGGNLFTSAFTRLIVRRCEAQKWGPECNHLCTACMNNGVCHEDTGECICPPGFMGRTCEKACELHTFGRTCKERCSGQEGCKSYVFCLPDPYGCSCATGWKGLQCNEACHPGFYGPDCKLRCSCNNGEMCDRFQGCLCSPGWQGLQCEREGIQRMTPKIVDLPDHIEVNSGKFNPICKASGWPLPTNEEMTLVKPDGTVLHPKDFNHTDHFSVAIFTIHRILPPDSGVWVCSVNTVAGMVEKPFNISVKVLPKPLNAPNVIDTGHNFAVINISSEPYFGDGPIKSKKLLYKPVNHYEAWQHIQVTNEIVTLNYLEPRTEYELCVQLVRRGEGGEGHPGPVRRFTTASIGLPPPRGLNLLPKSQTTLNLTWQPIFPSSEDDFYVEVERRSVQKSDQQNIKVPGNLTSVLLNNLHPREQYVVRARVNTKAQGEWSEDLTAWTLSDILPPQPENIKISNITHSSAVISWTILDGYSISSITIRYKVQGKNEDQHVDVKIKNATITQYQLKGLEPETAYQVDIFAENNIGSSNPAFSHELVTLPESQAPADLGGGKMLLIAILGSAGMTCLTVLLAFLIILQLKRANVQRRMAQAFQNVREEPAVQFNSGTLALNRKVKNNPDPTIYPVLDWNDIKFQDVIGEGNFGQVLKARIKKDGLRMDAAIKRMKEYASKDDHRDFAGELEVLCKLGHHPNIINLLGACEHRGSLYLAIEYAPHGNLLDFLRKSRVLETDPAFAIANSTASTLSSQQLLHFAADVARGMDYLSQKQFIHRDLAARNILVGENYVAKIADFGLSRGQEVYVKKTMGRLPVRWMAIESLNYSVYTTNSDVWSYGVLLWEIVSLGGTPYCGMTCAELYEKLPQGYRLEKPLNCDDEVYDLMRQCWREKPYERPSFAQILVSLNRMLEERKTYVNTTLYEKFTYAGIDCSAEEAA
In short: as §1

SMILES | inhibition at 1 µM (FLT3 D835Y) [%] | inhibition at 10 µM (FLT3 D835Y) [%] | inhibition at 1 µM (PIM3) [%] | inhibition at 10 µM (PIM3) [%] | inhibition at 1 µM (PRKCZ (PKC zeta)) [%] | inhibition at 10 µM (PRKCZ (PKC zeta)) [%] | inhibition at 1 µM (TEK (TIE2) Y897S) [%] | inhibition at 10 µM (TEK (TIE2) Y897S) [%]
COc1ccc2c(c1OC)c(=O)n1c3ccc(O)cc3c3ccnc2c31 [MW01, 5-Hydroxy-10,11-dimethoxy-9H-benzo[c]indolo[3,2,1-ij][1,5]naphthyridin-9-one] | 81 | 92 | 22 | 42 | 18 | 10 | -14 | -10
COc1ccc2cc3c(N)nn(C(=O)c4cccc(N(C)C)c4)c3nc2c1 [MW05, (3-Amino-7-methoxypyrazolo[3,4-b]quinolin-1-yl)-[3-(dimethylamino)phenyl]methanone] | 10 | 15 | 11 | 2 | 16 | -4 | -18 | -11
